Here are results for one molecule from patent US20190002427A1, “STEREOISOMER OF FLOCOUMAFEN, COMPOSITION AND RODENTICIDE BAIT COMPRISING SAME, AND METHOD FOR CONTROLLING TARGET RODENT PESTS” (priority 2015, published 2019).

The format of data set [1] is in vivo, Sprague-Dawley rats. Conditions: relative to the other configurational stereoisomers; in words. How it is done: About 0.525 g (±0.025 g) of rat liver is weighed out accurately and placed in a 50 mL polypropylene tube. 10 mL of acetone are added and the suspension is homogenized using an Ultra-Turrax® homogenizer/disperser for a time of about 30 seconds. The homogenizer/disperser shaft is rinsed with hot water and then twice with 20 mL of acetone in a polypropylene tube. The homogenate is centrifuged for 5 minutes at a centrifugation speed of 3000 rpm (revolutions per minute). The supernatant is collected and transferred into a test tube. The sample is subjected to evaporation under a stream of nitrogen (N2) at a temperature of 40° C. so as to form a dry extract.
1 mL of acetonitrile is added to the tube containing the dry extract so as to dissolve it. […]
The configurational stereoisomers of flocoumafen are separated by high-pressure liquid chromatography using a LUX® Cellulose-4 chiral column (00F-4490-B0, Phenomenex, Le Pecq, France) as stationary phase and a mixture formed from acetonitrile (A) and water comprising 0.1% by volume of formic acid (B), with an A/B volume ratio of 92/8, as mobile phase with a flow rate of the liquid mobile phase in the chromatography column of 0.25 mL/minute. […] In particular, the MRM (“Multiple Reaction Monitoring”) transitions m/z 541.1→382.1 and m/z 541.1→161, corresponding to the flocoumafen signal, are detected. […]

Data set [2] has as its system target rodent pests. The experiment in a line: Rodenticidal efficacy. To be noted: relative to the other configurational stereoisomers; in words, no data shown. It counts as in vivo.

Each structure is given as a SMILES string.

Take `O=c1oc2ccccc2c(O)c1C1CC(c2ccc(OCc3ccc(C(F)(F)F)cc3)cc2)Cc2ccccc21` (single isomer, unassigned) [Enantiomer E4, flocoumafen]: in data set [1], the “Persistence in the liver” value is recorded as “more persistent in the liver of the target rodent pests”. Besides, the Rodenticidal efficacy result in data set [2] was “increased rodenticidal efficacy relative to the other configurational stereoisomers”.
